System: E. coli (ATCC 25922)
Experiment: AATCC Test Method 100-2012 antibacterial activity of the treated textile, after 25 washes and 12 abrasion cycles, contact time 60 minutes
Assay type: cell-based
Details: for Log reduction of antimicrobial performance: 1% o.w.f; for Log reduction of antimicrobial performance in 100 GSM Polyester fabric / Log reduction of antimicrobial performance in 100 GSM cotton fabric / Log reduction of antimicrobial performance in 300 GSM Polyester fabric / Log reduction of antimicrobial performance in 300 GSM cotton fabric / Performance Test-Log reduction of antimicrobial performance: 2 min; for Performance Test-Log reduction of antimicrobial performance: pad process, single agent 5 gm/lit
Protocol: The antibacterial activity of the textile was tested in accordance with AATCC Test Method 100-2012. Prior to the test, the fabric was cut into coupons of 2×4 inches and washed separately 25 times, and exposed to 12 abrasion cycles, as per US EPA protocol 90072PA4 (described further below). The tests were made against E. coli (ATCC 25922). Contact time was 60 minutes, after inoculating with 10^8 CFU per coupon.

[1] = exhaust 80° C., 60 min, curing 180° C., dosage 0.1% o.w.f
[2] = exhaust 80° C., 60 min, curing 180° C., dosage 0.2% o.w.f
[3] = exhaust 80° C., 60 min, curing 180° C., dosage 0.5% o.w.f
[4] = exhaust 80° C., 60 min, curing 180° C., dosage 0.8% o.w.f
[5] = exhaust 80° C., 60 min, curing 180° C., dosage 1.0% o.w.f

CCCC1COC(Cn2cncn2)(c2ccc(Cl)cc2Cl)O1 (stereo not drawn) [Propiconazole, propiconazole]
Log reduction of antimicrobial performance of each active ingredient (exhaust 60° C., solution dosage 1% o.w.f, process time 60 min): 1.7 Log
Log reduction of antimicrobial performance of each active ingredient (exhaust 60° C., solution dosage 1% o.w.f, process time 90 min): 1.8 Log
Log reduction of antimicrobial performance of each active ingredient (exhaust 60° C., solution dosage 1% o.w.f, process time 120 min): 2.2 Log
Log reduction of antimicrobial performance of each active ingredient (exhaust 60° C., solution dosage 1% o.w.f, process time 180 min): 2.3 Log
Log reduction of antimicrobial performance of each active ingredient (exhaust 60° C., solution dosage 1% o.w.f, process time 240 min): 2.11 Log
Log reduction of antimicrobial performance (exhaust 80° C., 60 min, curing 170° C., curing dwell time 0.5 min): 0.3 Log
Log reduction of antimicrobial performance (exhaust 80° C., 60 min, curing 170° C., curing dwell time 1.0 min): 0.6 Log
Log reduction of antimicrobial performance (exhaust 80° C., 60 min, curing 170° C., curing dwell time 1.5 min): 0.8 Log
Log reduction of antimicrobial performance (exhaust 80° C., 60 min, curing 170° C., curing dwell time 2.0 min): 1.3 Log
Log reduction of antimicrobial performance (exhaust 80° C., 60 min, curing 170° C., curing dwell time 2.5 min): 1.1 Log
Log reduction of antimicrobial performance (exhaust 80° C., 60 min, curing 170° C., curing dwell time 3.0 min): 0.67 Log
Log reduction of antimicrobial performance (exhaust 80° C., 60 min, curing 180° C., curing dwell time 0.5 min): 1.7 Log
Log reduction of antimicrobial performance (exhaust 80° C., 60 min, curing 180° C., curing dwell time 1.0 min): 1.8 Log
Log reduction of antimicrobial performance (exhaust 80° C., 60 min, curing 180° C., curing dwell time 1.5 min): 2.2 Log
Log reduction of antimicrobial performance (exhaust 80° C., 60 min, curing 180° C., curing dwell time 2.0 min): 3.8 Log
Log reduction of antimicrobial performance (exhaust 80° C., 60 min, curing 180° C., curing dwell time 2.5 min): 3.5 Log
Log reduction of antimicrobial performance (exhaust 80° C., 60 min, curing 180° C., curing dwell time 3.0 min): 3.4 Log
Log reduction of antimicrobial performance (exhaust 80° C., 60 min, curing 190° C., curing dwell time 0.5 min): 0.3 Log
Log reduction of antimicrobial performance (exhaust 80° C., 60 min, curing 190° C., curing dwell time 1.0 min): 0.8 Log
Log reduction of antimicrobial performance (exhaust 80° C., 60 min, curing 190° C., curing dwell time 1.5 min): 2.2 Log
Log reduction of antimicrobial performance (exhaust 80° C., 60 min, curing 190° C., curing dwell time 2.0 min): 2.88 Log
Log reduction of antimicrobial performance (exhaust 80° C., 60 min, curing 190° C., curing dwell time 2.5 min): 2.34 Log
Log reduction of antimicrobial performance (exhaust 80° C., 60 min, curing 190° C., curing dwell time 3.0 min): 1.1 Log
Log reduction of antimicrobial performance (exhaust 80° C., 60 min, curing temperature 100 ° C.): 0.21 Log
Log reduction of antimicrobial performance (exhaust 80° C., 60 min, curing temperature 120 ° C.): 0.45 Log
Log reduction of antimicrobial performance (exhaust 80° C., 60 min, curing temperature 140 ° C.): 0.98 Log
Log reduction of antimicrobial performance (exhaust 80° C., 60 min, curing temperature 160 ° C.): 1.23 Log
Log reduction of antimicrobial performance (exhaust 80° C., 60 min, curing temperature 165 ° C.): 1.28 Log
Log reduction of antimicrobial performance (exhaust 80° C., 60 min, curing temperature 170 ° C.): 1.45 Log
Log reduction of antimicrobial performance (exhaust 80° C., 60 min, curing temperature 175 ° C.): 2.32 Log
Log reduction of antimicrobial performance (exhaust 80° C., 60 min, curing temperature 180 ° C.): 2.87 Log
Log reduction of antimicrobial performance (exhaust 80° C., 60 min, curing temperature 185 ° C.): 2.88 Log
Log reduction of antimicrobial performance (exhaust 80° C., 60 min, curing temperature 190 ° C.): 2.91 Log
Log reduction of antimicrobial performance (exhaust 80° C., 60 min, curing temperature 195 ° C.): 2.93 Log
Log reduction of antimicrobial performance in 100 GSM Polyester fabric [1]: 0.59 Log
Log reduction of antimicrobial performance in 100 GSM cotton fabric [1]: 0.63 Log
Log reduction of antimicrobial performance in 300 GSM Polyester fabric [1]: 0.58 Log
Log reduction of antimicrobial performance in 300 GSM cotton fabric [1]: 0.64 Log
Log reduction of antimicrobial performance in 100 GSM Polyester fabric [2]: 1.35 Log
Log reduction of antimicrobial performance in 100 GSM cotton fabric [2]: 1.45 Log
Log reduction of antimicrobial performance in 300 GSM Polyester fabric [2]: 1.37 Log
Log reduction of antimicrobial performance in 300 GSM cotton fabric [2]: 1.45 Log
Log reduction of antimicrobial performance in 100 GSM Polyester fabric [3]: 1.71 Log
Log reduction of antimicrobial performance in 100 GSM cotton fabric [3]: 1.95 Log
Log reduction of antimicrobial performance in 300 GSM Polyester fabric [3]: 1.73 Log
Log reduction of antimicrobial performance in 300 GSM cotton fabric [3]: 1.95 Log
Log reduction of antimicrobial performance in 100 GSM Polyester fabric [4]: 2.14 Log
Log reduction of antimicrobial performance in 100 GSM cotton fabric [4]: 2.34 Log
Log reduction of antimicrobial performance in 300 GSM Polyester fabric [4]: 2.50 Log
Log reduction of antimicrobial performance in 300 GSM cotton fabric [4]: 2.34 Log
Log reduction of antimicrobial performance in 100 GSM Polyester fabric [5]: 2.75 Log
Log reduction of antimicrobial performance in 100 GSM cotton fabric [5]: 2.85 Log
Log reduction of antimicrobial performance in 300 GSM Polyester fabric [5]: 2.74 Log
Log reduction of antimicrobial performance in 300 GSM cotton fabric [5]: 2.88 Log
Log reduction of antimicrobial performance of each active ingredient (exhaust 80° C., 60 min, dosage 1% o.w.f (test up to 5% o.w.f)): 2.56 Log
Log reduction of antimicrobial performance of each active ingredient (exhaust 80° C., 60 min, dosage 2% o.w.f): 2.57 Log
Log reduction of antimicrobial performance of each active ingredient (exhaust 80° C., 60 min, dosage 3% o.w.f): 2.58 Log
Log reduction of antimicrobial performance of each active ingredient (exhaust 80° C., 60 min, dosage 4% o.w.f): 2.61 Log
Log reduction of antimicrobial performance of each active ingredient (exhaust 80° C., 60 min, dosage 5% o.w.f): 2.63 Log
Log reduction of antimicrobial performance of each active ingredient (exhaust 80 ° C., solution dosage 1% o.w.f, process time 10 min): 0.83 Log
Log reduction of antimicrobial performance of each active ingredient (exhaust 80 ° C., solution dosage 1% o.w.f, process time 20 min): 0.99 Log
Log reduction of antimicrobial performance of each active ingredient (exhaust 80 ° C., solution dosage 1% o.w.f, process time 30 min): 1.23 Log
Log reduction of antimicrobial performance of each active ingredient (exhaust 80 ° C., solution dosage 1% o.w.f, process time 40 min): 1.67 Log
Log reduction of antimicrobial performance of each active ingredient (exhaust 80 ° C., solution dosage 1% o.w.f, process time 50 min): 2.56 Log
Log reduction of antimicrobial performance of each active ingredient (exhaust 80 ° C., solution dosage 1% o.w.f, process time 60 min): 2.87 Log
Log reduction of antimicrobial performance of each active ingredient (exhaust 80 ° C., solution dosage 1% o.w.f, process time 70 min): 2.89 Log
Log reduction of antimicrobial performance of each active ingredient (exhaust 80 ° C., solution dosage 1% o.w.f, process time 80 min): 2.93 Log
Log reduction of antimicrobial performance of each active ingredient (exhaust 80 ° C., solution dosage 1% o.w.f, process time 90 min): 2.94 Log
Performance Test-Log reduction of antimicrobial performance (curing 120° C.): 0.04 Log
Performance Test-Log reduction of antimicrobial performance (curing 140° C.): 0.14 Log
Performance Test-Log reduction of antimicrobial performance (curing 150° C.): 0.22 Log
Performance Test-Log reduction of antimicrobial performance (curing 160° C.): 0.49 Log
